Reference: ChEMBL document CHEMBL4507283, “Data for DCP probe BI-1935” (2021)

Key:
[1] = target: Tyrosine-protein kinase JAK3 (Homo sapiens) (UniProt P52333); settings: Compound concentration 1000.0 nM
[2] = target: Serine/threonine-protein kinase mTOR (Homo sapiens) (UniProt P42345); settings: Compound concentration 1000.0 nM
[3] = target: D(1A) dopamine receptor (Homo sapiens) (UniProt P21728); assay: D1/HU Eurofins-Panlabs selectivity data (BI); settings: Compound concentration 10.0 uM
[4] = target: Serine/threonine-protein kinase PRP4 homolog (Homo sapiens) (UniProt Q13523); settings: Compound concentration 1000.0 nM
[5] = target: Cyclin-dependent kinase 17 (Homo sapiens) (UniProt Q00537); settings: Compound concentration 1000.0 nM
[6] = target: Mitogen-activated protein kinase 12 (Homo sapiens) (UniProt P53778); settings: Compound concentration 1000.0 nM
[7] = target: Adrenergic receptor alpha-2 (Rattus norvegicus) (UniProt P22086+P19328+P22909); assay: ALPHA2/R Eurofins-Panlabs selectivity data (BI); assay type: protein assay; settings: Compound concentration 10.0 uM
[8] = target: Serine/threonine-protein kinase WNK2 (Homo sapiens) (UniProt Q9Y3S1); settings: Compound concentration 1000.0 nM
[9] = target: Vasopressin V1a receptor (Homo sapiens) (UniProt P37288); assay: V1A/HU Eurofins-Panlabs selectivity data (BI); settings: Compound concentration 10.0 uM
[10] = target: Activin receptor type-2B (Homo sapiens) (UniProt Q13705); settings: Compound concentration 1000.0 nM
[11] = target: Myotonin-protein kinase (Homo sapiens) (UniProt Q09013); settings: Compound concentration 1000.0 nM
[12] = target: Ribosomal protein S6 kinase alpha-3 (Homo sapiens) (UniProt P51812); settings: Compound concentration 1000.0 nM
[13] = target: Muscarinic acetylcholine receptor M4 (Homo sapiens) (UniProt P08173); settings: Compound concentration 10.0 uM
[14] = target: Serine/threonine-protein kinase NLK (Homo sapiens) (UniProt Q9UBE8); settings: Compound concentration 1000.0 nM
[15] = target: G protein-coupled receptor kinase 4 (Homo sapiens) (UniProt P32298); settings: Compound concentration 1000.0 nM
[16] = target: Serine/threonine-protein kinase pim-1 (Homo sapiens) (UniProt P11309); settings: Compound concentration 1000.0 nM
[17] = target: Tyrosine-protein kinase CSK (Homo sapiens) (UniProt P41240); settings: Compound concentration 1000.0 nM
[18] = target: Calcium/calmodulin-dependent protein kinase type II subunit gamma (Homo sapiens) (UniProt Q13555); settings: Compound concentration 1000.0 nM
[19] = target: 5-hydroxytryptamine receptor 2A (Homo sapiens) (UniProt P28223); settings: Compound concentration 10.0 uM
[20] = target: Mitogen-activated protein kinase 6 (Homo sapiens) (UniProt Q16659); settings: Compound concentration 1000.0 nM
[21] = target: T1, 5-hydroxytryptamine receptor 3A (Homo sapiens) (UniProt P46098); assay: 5HT3/HU Eurofins-Panlabs selectivity data (BI); settings: Compound concentration 10.0 uM
T1 sequence (whole entry): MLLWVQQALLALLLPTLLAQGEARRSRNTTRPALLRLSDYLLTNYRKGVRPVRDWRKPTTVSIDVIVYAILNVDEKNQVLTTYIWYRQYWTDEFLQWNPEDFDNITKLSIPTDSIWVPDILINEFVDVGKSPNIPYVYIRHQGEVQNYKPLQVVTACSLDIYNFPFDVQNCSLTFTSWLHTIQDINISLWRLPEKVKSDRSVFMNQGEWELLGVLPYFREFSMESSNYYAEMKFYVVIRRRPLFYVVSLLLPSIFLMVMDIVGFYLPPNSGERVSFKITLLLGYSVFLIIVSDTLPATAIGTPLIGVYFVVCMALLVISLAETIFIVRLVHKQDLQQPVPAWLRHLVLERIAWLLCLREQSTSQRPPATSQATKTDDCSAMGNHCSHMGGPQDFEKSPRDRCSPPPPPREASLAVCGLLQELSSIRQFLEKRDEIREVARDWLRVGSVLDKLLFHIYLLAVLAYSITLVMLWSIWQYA

[22] = target: Adrenergic receptor alpha-1 (Rattus norvegicus) (UniProt P15823+P23944+P43140); assay: ALPHA1/R Eurofins-Panlabs selectivity data (BI); assay type: protein assay; settings: Compound concentration 10.0 uM
[23] = target: Serine/threonine-protein kinase 17A (Homo sapiens) (UniProt Q9UEE5); settings: Compound concentration 1000.0 nM
[24] = target: Serine/threonine-protein kinase DCLK3 (Homo sapiens) (UniProt Q9C098); settings: Compound concentration 1000.0 nM
[25] = target: Serine/threonine-protein kinase MRCK gamma (Homo sapiens) (UniProt Q6DT37); settings: Compound concentration 1000.0 nM
[26] = target: Microtubule-associated serine/threonine-protein kinase 1 (Homo sapiens) (UniProt Q9Y2H9); settings: Compound concentration 1000.0 nM
[27] = target: Serine/threonine-protein kinase ICK (Homo sapiens) (UniProt Q9UPZ9); settings: Compound concentration 1000.0 nM
[28] = target: Serine/threonine-protein kinase PLK3 (Homo sapiens) (UniProt Q9H4B4); settings: Compound concentration 1000.0 nM
[29] = target: Nitric oxide synthase 3 (Rattus norvegicus) (UniProt Q62600); assay: CNOS Eurofins-Panlabs selectivity data (BI); settings: Compound concentration 10.0 uM
[30] = target: Receptor-interacting serine/threonine-protein kinase 2 (Homo sapiens) (UniProt O43353); settings: Compound concentration 1000.0 nM
[31] = target: Serine/threonine-protein kinase pim-2 (Homo sapiens) (UniProt Q9P1W9); settings: Compound concentration 1000.0 nM
[32] = target: Serine/threonine-protein kinase Nek2 (Homo sapiens) (UniProt P51955); settings: Compound concentration 1000.0 nM
[33] = target: Membrane-associated tyrosine- and threonine-specific cdc2-inhibitory kinase (Homo sapiens) (UniProt Q99640); settings: Compound concentration 1000.0 nM
[34] = target: Casein kinase I isoform delta (Homo sapiens) (UniProt P48730); settings: Compound concentration 1000.0 nM
[35] = target: Sodium-dependent serotonin transporter (Homo sapiens) (UniProt P31645); settings: Compound concentration 10.0 uM
[36] = target: Mitogen-activated protein kinase kinase kinase 3 (Homo sapiens) (UniProt Q99759); settings: Compound concentration 1000.0 nM
[37] = target: 5-hydroxytryptamine receptor 2C (Homo sapiens) (UniProt P28335); settings: Compound concentration 10.0 uM
[38] = target: Myosin light chain kinase family member 4 (Homo sapiens) (UniProt Q86YV6); settings: Compound concentration 1000.0 nM
[39] = target: Tyrosine-protein kinase receptor TYRO3 (Homo sapiens) (UniProt Q06418); settings: Compound concentration 1000.0 nM

Serine/threonine-protein kinase ICK (Homo sapiens), sequence (Q9UPZ9 whole entry): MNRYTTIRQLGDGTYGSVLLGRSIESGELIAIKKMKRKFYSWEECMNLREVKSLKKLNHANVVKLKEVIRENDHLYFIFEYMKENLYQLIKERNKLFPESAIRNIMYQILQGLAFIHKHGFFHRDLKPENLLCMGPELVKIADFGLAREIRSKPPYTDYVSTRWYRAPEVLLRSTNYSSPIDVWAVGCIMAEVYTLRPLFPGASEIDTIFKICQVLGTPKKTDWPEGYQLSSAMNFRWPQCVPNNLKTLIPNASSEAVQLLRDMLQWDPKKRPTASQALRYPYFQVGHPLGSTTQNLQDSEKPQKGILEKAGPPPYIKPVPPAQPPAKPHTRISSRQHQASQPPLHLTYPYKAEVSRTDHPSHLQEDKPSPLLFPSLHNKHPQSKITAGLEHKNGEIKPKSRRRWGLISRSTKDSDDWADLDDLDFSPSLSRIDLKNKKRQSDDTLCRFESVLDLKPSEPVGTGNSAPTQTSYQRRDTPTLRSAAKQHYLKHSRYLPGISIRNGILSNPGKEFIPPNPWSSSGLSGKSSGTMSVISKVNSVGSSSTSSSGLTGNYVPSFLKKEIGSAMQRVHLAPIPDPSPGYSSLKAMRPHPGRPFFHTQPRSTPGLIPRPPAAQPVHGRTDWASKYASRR
Serine/threonine-protein kinase NLK (Homo sapiens), sequence (Q9UBE8 whole entry): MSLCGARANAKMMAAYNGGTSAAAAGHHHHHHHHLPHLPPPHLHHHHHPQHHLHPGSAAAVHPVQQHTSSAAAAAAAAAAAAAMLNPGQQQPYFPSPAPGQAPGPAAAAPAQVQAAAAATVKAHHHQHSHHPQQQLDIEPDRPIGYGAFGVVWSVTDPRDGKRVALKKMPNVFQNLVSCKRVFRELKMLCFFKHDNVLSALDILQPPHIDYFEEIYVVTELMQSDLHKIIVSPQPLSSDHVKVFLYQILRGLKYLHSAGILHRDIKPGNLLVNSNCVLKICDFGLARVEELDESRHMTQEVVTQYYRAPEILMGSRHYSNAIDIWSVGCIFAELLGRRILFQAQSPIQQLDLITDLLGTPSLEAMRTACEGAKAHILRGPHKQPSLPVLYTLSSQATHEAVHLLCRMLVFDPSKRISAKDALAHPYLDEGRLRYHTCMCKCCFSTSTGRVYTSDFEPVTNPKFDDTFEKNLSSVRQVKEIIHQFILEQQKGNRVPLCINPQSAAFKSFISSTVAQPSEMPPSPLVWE
5-hydroxytryptamine receptor 2A (Homo sapiens), sequence (P28223 whole entry): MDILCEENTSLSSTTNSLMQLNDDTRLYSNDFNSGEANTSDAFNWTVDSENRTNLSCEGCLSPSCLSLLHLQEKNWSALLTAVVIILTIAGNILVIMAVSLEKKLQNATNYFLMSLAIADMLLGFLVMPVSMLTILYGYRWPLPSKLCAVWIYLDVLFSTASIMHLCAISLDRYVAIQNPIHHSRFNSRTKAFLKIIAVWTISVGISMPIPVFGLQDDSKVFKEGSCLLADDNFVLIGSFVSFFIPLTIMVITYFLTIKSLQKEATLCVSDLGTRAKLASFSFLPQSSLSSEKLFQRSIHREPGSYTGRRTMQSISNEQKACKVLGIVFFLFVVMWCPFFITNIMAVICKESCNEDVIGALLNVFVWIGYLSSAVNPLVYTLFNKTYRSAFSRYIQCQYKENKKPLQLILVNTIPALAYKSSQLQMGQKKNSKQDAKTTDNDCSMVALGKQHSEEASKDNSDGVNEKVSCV
Activin receptor type-2B (Homo sapiens), sequence (Q13705 whole entry): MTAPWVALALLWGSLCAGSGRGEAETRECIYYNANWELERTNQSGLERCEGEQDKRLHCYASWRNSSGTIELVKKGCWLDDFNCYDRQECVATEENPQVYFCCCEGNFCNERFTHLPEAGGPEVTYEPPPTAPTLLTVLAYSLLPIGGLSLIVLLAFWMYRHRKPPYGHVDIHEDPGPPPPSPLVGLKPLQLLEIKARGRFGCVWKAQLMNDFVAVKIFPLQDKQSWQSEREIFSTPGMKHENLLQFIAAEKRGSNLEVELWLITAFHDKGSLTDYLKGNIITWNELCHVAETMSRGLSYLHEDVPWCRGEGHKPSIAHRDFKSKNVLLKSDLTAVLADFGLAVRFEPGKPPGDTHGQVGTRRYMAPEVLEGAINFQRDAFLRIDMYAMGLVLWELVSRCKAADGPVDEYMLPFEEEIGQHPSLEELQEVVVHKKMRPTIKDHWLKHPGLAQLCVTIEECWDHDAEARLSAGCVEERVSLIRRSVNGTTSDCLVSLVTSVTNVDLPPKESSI
Membrane-associated tyrosine- and threonine-specific cdc2-inhibitory kinase (Homo sapiens), sequence (Q99640 whole entry, canonical isoform): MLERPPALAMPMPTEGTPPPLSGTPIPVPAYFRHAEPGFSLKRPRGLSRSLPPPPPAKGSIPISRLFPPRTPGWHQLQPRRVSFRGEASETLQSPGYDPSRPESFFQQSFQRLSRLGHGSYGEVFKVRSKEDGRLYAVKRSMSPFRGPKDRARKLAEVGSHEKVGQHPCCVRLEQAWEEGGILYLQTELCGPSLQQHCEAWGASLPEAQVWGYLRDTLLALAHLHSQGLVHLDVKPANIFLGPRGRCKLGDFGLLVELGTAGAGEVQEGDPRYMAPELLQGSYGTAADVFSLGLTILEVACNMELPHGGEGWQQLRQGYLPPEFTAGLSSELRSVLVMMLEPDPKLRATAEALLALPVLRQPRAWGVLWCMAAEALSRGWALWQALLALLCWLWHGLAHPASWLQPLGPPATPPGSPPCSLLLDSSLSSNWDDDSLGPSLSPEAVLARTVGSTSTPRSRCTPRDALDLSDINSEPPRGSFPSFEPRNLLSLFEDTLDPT
Tyrosine-protein kinase CSK (Homo sapiens), sequence (P41240 2-450 limits assumed): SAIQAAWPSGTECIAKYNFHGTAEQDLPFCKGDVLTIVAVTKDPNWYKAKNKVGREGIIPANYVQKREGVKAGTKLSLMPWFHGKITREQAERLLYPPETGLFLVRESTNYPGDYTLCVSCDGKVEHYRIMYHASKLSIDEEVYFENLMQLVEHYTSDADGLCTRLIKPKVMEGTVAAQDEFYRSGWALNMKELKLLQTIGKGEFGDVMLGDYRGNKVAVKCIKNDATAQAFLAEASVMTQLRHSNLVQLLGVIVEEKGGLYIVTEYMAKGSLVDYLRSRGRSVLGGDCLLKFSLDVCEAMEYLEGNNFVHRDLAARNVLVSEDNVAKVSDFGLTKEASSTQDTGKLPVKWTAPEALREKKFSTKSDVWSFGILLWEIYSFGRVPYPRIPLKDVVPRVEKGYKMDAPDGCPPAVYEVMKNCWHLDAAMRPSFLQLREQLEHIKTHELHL
Myotonin-protein kinase (Homo sapiens), sequence (Q09013 whole entry): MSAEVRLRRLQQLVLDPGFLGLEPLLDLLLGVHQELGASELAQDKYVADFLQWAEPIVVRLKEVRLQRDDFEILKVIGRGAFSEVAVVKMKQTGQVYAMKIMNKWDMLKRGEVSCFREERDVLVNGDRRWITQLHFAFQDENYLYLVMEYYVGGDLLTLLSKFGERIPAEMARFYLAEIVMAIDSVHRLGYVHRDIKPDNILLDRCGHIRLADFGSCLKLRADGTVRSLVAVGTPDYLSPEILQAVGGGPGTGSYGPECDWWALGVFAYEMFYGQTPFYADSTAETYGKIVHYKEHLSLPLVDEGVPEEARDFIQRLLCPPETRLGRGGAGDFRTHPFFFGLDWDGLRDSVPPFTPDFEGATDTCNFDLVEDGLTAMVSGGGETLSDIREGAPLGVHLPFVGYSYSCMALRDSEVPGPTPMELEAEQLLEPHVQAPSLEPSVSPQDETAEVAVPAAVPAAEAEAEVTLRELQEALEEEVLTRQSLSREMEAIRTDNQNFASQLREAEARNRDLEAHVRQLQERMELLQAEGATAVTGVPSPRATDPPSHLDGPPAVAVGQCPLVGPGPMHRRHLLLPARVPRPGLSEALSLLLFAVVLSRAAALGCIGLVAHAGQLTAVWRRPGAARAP
Nitric oxide synthase 3 (Rattus norvegicus), sequence (Q62600 whole entry): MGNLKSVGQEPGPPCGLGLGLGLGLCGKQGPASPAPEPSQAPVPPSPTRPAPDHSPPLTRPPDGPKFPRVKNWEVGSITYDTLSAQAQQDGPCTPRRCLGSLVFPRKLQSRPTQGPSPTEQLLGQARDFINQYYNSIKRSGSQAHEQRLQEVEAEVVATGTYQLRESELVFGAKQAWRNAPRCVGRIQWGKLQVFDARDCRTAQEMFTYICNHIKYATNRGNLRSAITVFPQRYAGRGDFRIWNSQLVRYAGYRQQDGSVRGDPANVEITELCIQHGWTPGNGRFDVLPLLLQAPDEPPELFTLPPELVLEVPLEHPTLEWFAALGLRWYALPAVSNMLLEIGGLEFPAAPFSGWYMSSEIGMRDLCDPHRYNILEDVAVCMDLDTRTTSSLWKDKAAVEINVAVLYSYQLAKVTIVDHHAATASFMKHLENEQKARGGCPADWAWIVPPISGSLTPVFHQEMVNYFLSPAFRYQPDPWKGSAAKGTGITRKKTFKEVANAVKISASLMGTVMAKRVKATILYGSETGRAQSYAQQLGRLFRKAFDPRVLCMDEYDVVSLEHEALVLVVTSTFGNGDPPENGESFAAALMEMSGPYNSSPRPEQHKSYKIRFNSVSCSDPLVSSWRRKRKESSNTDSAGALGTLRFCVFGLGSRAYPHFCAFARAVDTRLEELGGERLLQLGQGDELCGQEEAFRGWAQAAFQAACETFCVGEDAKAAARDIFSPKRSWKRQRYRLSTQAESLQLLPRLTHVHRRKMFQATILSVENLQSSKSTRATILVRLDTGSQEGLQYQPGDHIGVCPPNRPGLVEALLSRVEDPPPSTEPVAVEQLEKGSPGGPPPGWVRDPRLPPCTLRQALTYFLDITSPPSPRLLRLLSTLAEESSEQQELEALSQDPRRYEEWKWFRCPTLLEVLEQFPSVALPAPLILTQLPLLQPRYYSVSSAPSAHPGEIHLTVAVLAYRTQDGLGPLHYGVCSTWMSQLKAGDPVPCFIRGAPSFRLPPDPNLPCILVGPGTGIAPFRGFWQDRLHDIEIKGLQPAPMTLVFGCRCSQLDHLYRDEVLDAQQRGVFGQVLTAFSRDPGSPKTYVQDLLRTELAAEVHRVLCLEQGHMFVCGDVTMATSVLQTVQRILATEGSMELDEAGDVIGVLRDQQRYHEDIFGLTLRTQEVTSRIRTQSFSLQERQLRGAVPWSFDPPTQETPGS

`CCOCCn1cc(C(=O)Nc2ccc(-n3nc(-c4cccnc4)cc3C(F)(F)F)cn2)ccc1=O` [BI 1935] showed a residual activity [1] of 100%, a residual activity [2] of 100% and a residual activity [3] of 110%. For the same compound, the residual activity [4] was 97%, the residual activity [5] was 96% and the residual activity [6] was 65%. For the same compound, the residual activity [7] was 91%, the residual activity [8] was 64% and the residual activity [9] was 98%. The residual activity [10] was 100%, the residual activity [11] was 100% and the residual activity [12] was 84%. For the same compound, the inhibition [13] was 4.25%, the residual activity [14] was 47% and the residual activity [15] was 100%. For the same compound, the residual activity [16] was 100%, the residual activity [17] was 100% and the residual activity [18] was 100%. It also gave an inhibition [19] of -4.26%, a residual activity [20] of 100% and a residual activity [21] of 117%. It also gave a residual activity [22] of 94%, a residual activity [23] of 100% and a residual activity [24] of 100%. For the same compound, the residual activity [25] was 91%, the residual activity [26] was 100% and the residual activity [27] was 99%. It also gave a residual activity [28] of 84%, a residual activity [29] of 112% and a residual activity [30] of 71%. The residual activity [31] was 100%, the residual activity [32] was 100% and the residual activity [33] was 100%. For the same compound, the residual activity [34] was 100%, the inhibition [35] was 8.63% and the residual activity [36] was 100%. It also gave an inhibition [37] of 3.75%, a residual activity [38] of 100% and a residual activity [39] of 0%.
